Data on two molecules can be found in patent US7829593B2, “Glutamine-containing compositions and a method for increasing blood flow using same” (Ajinomoto Co., Inc., priority 2006, dated 2010).

The subject of experiment [1] is blood flow in the capillary vessels of various organs of rats. The experiment in a line: Changes in blood flow in various organs after oral administration of glutamine to rats (microsphere method). Type of experiment: in vivo, rat. Particulars: for Change in blood flow after administration of amino acid, on the basis of 100% blood flow before administration: male SD rats, 50 mg/kg glutamine into the stomach. The procedure: (a) Glutamine was given to rats and then the changes in blood flow in the capillary vessels of their various organs were determined. (b) Male SD rats having a body weight of about 400 g were subjected to the experiment. (c) The rats were anesthetized by pentobarbital, and catheters were placed in the left ventricle and the right […] of each rat. […] Through the catheter located from the carotid artery to the left ventricle, yellow and red microspheres were each injected before and after the administration of the amino acid solution. […] For the control group, distilled water was administered. (b) Operation: Catheters were inserted into the carotid and femoral arteries of the rats under anesthesia, the microspheres were injected via these catheters, and blood samples were taken. […] After a sufficient interval after the second injection of the microspheres, the rats were euthanized. The muscles, alimentary canals, liver, kidneys, spleen, heart, brain, fat tissue, and abdominal skin were extracted. The microspheres which had collected in each organ were removed and the change in the ratio of the blood flow was calculated from the amounts of microspheres present in each organ.

Experiment [2] deals with blood pressure and vascular resistance in humans. To be noted: 78 kg average body weight, cited from earlier work.

SMILES strings stand for the structures. Read-outs that look alike come from different tables or passages of the source.

Take `NC(=O)CC[C@H](N)C(=O)O` [Glutamine, glutamine]: the “Change in blood flow after administration of amino acid, on the basis of 100% blood flow before administration” value was 146% in experiment [1] (Abdominal skin); 163% in experiment [1] (Brain); 154% in experiment [1] (Dorsal skin); 136% in experiment [1] (Duodenum); 137% in experiment [1] (Fat tissues); 105% in experiment [1] (Gastrocnemius). Besides, the “Change in blood flow after administration of amino acid, on the basis of 100% blood flow before administration” value was determined as 259% in experiment [1] (Heart); 113% in experiment [1] (Kidney); 226% in experiment [1] (Liver); 146% in experiment [1] (Soleus); 146% in experiment [1] (Spleen). Besides, in experiment [1] (abdominal skin, spleen, liver, heart and brain, rats, 50 mg/kg glutamine), the “Blood flow in the capillary vessels (result in words)” value was “significant increase in blood flow”.

`N=C(N)NCCC[C@H](N)C(=O)O` [arginine]: the “Effect on blood pressure and vascular resistance” value in experiment [2] (6 g arginine intravenously) is “did not have either effect”; in experiment [2] (30 g arginine intravenously), “lowered blood pressure and vascular resistance”.
